Source: patent US9511073B2, “Aromatic amides and uses thereof” (TAXIS Pharmaceuticals, Inc., priority 2011, dated 2016)
Converted amounts (≈) assume the structure as drawn. Like-named read-outs stand apart in the source and are kept apart here.

Columns and labels:
[1] = Pharmacokinetic assay: plasma concentration by LC/MS/MS after single intravenous or peroral dose of 3 mg/kg; type: in vivo; details: 3 mg/kg IV dosing in mice
Method: The pharmacokinetic profiles of selected comparator compounds A-N in Table 6 and compounds of the invention were determined by measuring the compound concentration in plasma by LC/MS/MS following a single intravenous or peroral administration of the compounds at a dose of 3 mg/kg. The concentrations described are the mean plasma concentrations at each time point from three animals. Intravenous dose formulation was administered as a single bolus dose through the tail vein. Oral dose formulation was administered to animals by an oral gavage needle. In both cases the dose volume was 5.0 mL/kg. Blood was collected from anesthetized mice through a capillary guided into the retro-orbital plexus. The collected blood was centrifuged to obtain plasma and the compounds extracted into methanol prior to determining the compound concentration by LC/MS/MS. The results are shown graphically in FIG. 1 and for the AUC and CL parameters in Table 6.

[2] = test system: Staphylococcus aureus (Isolate ID ATCC 29213); experiment: Bacterial assay: MIC by broth microdilution or agar dilution (CLSI), S. aureus ATCC 29213; type: cell-based; details: for MIC: Staphylococcus aureus, ATCC29213, read-out: S. aureus MIC (μg/mL) Activity Range, S. aureus (ATCC29213)
Procedure, shortened: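 MICs by CLSI broth microdilution or agar dilution against S. aureus ATCC 29213 and its FtsZ-G196A mutant. Values reported as ranges: A ≤0.25 μg/mL, B >0.25–1.0, C >1.0–16, D >16 μg/mL.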

| clearance ([1]; mouse, plasma) [mL/min/kg] | AUC ([1]; mouse, plasma, read-out: AUC) [ng·h/mL] | Compound | MIC [2] [µg/mL] | further results |
| --- | --- | --- | --- | --- |
| 139 | 400 | NC(=O)c1c(F)ccc(OCc2nc(-c3ccc(Cl)nc3)cs2)c1F [Compound F, 3-((4-(6-chloropyridin-3-yl)thiazol-2-yl)methoxy)-2,6-difluorobenzamide] |  |  |
|  |  | CC(Oc1ccc(F)c(C(N)=O)c1F)c1nc(-c2ccc(OC(F)(F)F)cc2)c(Cl)o1 (stereo not shown) [Compound 21, 3-(1-(5-chloro-4-(4-(trifluoromethoxy)phenyl)oxazol-2-yl)ethoxy)-2,6-difluorobenzamide] | < 0.25 | AUC [1]: 1600 ng·h/mL; CL [1]: 31 mL/min/kg |
|  |  | NC(=O)c1c(F)ccc(OCc2nc3cc(-c4ccccc4)cnc3s2)c1F [B] |  | AUC [1]: 500 ng·h/mL; CL [1]: 91 mL/min/kg |
| 52 | 900 | NC(=O)c1c(F)ccc(OCc2nc(-c3ccc(Cl)cc3)no2)c1F [Compound A, 3-((3-(4-chlorophenyl)-1,2,4-oxadiazol-5-yl)methoxy)-2,6-difluorobenzamide] |  |  |
|  |  | CCc1oc(COc2ccc(F)c(C(N)=O)c2F)nc1-c1ccc(OC)cc1 [I, 3-((5-ethyl-4-(4-methoxyphenyl)oxazol-2-yl)methoxy)-2,6-difluorobenzamide] |  | AUC [1]: 200 ng·h/mL; CL [1]: 319 mL/min/kg |
| 173 | 300 | NC(=O)c1c(F)ccc(OCc2nc(-c3cnc(Cl)nc3)cs2)c1F [H, 3-((4-(2-chloropyrimidin-5-yl)thiazol-2-yl)methoxy)-2,6-difluorobenzamide] |  |  |
| 55 | 900 | COc1ccc(-c2nc(COc3ccc(F)c(C(N)=O)c3F)sc2-c2ccc(N(C)C)nc2)cc1 [D, 3-((5-(6-(dimethylamino)pyridin-3-yl)-4-(4-methoxyphenyl)thiazol-2-yl)methoxy)-2,6-difluorobenzamide] |  |  |
|  |  | CCOc1cnc2sc(COc3ccc(F)c(C(N)=O)c3F)nc2c1 [E] |  | AUC [1]: 200 ng·h/mL; CL [1]: 203 mL/min/kg |
| 130 | 400 | Cc1ccc(-c2csc(COc3ccc(F)c(C(N)=O)c3F)n2)cn1 [Compound C, 2,6-difluoro-3-((4-(6-methylpyridin-3-yl)thiazol-2-yl)methoxy)benzamide] |  |  |
| 59 | 800 | Cc1noc(CCc2csc(COc3ccc(F)c(C(N)=O)c3F)n2)n1 [L, 2,6-difluoro-3-((4-(2-(3-methyl-1,2,4-oxadiazol-5-yl)ethyl)thiazol-2-yl)methoxy)benzamide] |  |  |
| 82 | 600 | COc1cnc(-c2csc(COc3ccc(F)c(C(N)=O)c3F)n2)cn1 [G, 2,6-difluoro-3-((4-(5-methoxypyrazin-2-yl)thiazol-2-yl)methoxy)benzamide] |  |  |
| 180 | 300 | COc1ncc(-c2csc(COc3ccc(F)c(C(N)=O)c3F)n2)s1 [J, 2,6-difluoro-3-((2′-methoxy-4,5′-bithiazol-2-yl)methoxy)benzamide] |  |  |
| 369 | 100 | CCCc1oc(COc2ccc(F)c(C(N)=O)c2F)nc1-c1cccc(O)c1 [Compound M, 2,6-difluoro-3-((4-(3-hydroxyphenyl)-5-propyloxazol-2-yl)methoxy)benzamide] |  |  |
| 270 | 200 | C=CCc1oc(COc2ccc(F)c(C(N)=O)c2F)nc1-c1cccc(O)c1 [Compound N, 3-((5-allyl-4-(3-hydroxyphenyl)oxazol-2-yl)methoxy)-2,6-difluorobenzamide] |  |  |
|  |  | COc1cc(CNC(=O)OCC(Oc2ccc(F)c(C(N)=O)c2F)c2nc(-c3ccc(C(F)(F)F)cc3)c(Br)o2)ccn1 (stereo not shown) [Compound 209, 2-(5-bromo-4-(4-(trifluoromethyl)phenyl)oxazol-2-yl)-2-(3-carbamoyl-2,4-difluorophenoxy)ethyl ((2-methoxypyridin-4-yl)methyl)carbamate] | 0.25 to 1 (≈ 0.372 to 1.49 µM) |  |
|  |  | CS(=O)(=O)NCC(Oc1ccc(F)c(C(N)=O)c1F)c1nc(-c2ccc(C(F)(F)F)cc2)c(Br)o1 (stereo not shown) [Compound 285, 3-(1-(5-bromo-4-(4-(trifluoromethyl)phenyl)oxazol-2-yl)-2-(methylsulfonamido)ethoxy)-2,6-difluorobenzamide] | 1 to 16 (≈ 1.71 to 27.4 µM) |  |
|  |  | COc1cc(Cl)c(Br)cc1-c1nc(C(CO)Oc2ccc(F)c(C(N)=O)c2F)oc1Br (stereo not shown) [Compound 232, 3-(1-(5-bromo-4-(5-bromo-4-chloro-2-methoxyphenyl)oxazol-2-yl)-2-hydroxyethoxy)-2,6-difluorobenzamide] | 1 to 16 (≈ 1.72 to 27.5 µM) |  |

| clearance ([1]; mouse, plasma) [mL/min/kg] | AUC ([1]; mouse, plasma, read-out: AUC) [ng·h/mL] | Compound | MIC [2] [µg/mL] | further results |
| --- | --- | --- | --- | --- |
|  |  | NC(=O)c1c(F)ccc(OC(COCCO)c2nc(-c3ccc(C(F)(F)F)cc3)c(Br)o2)c1F (stereo not shown) [Compound 150, 3-(1-(5-bromo-4-(4-(trifluoromethyl)phenyl)oxazol-2-yl)-2-(2-hydroxyethoxy)ethoxy)-2,6-difluorobenzamide] | 0.25 to 1 (≈ 0.454 to 1.81 µM) |  |
|  |  | CSc1ccc(OC(CO)c2nc(-c3ccc(C(F)(F)F)cc3)c(SC)o2)c(F)c1C(N)=O (stereo not shown) [Compound 270, 2-fluoro-3-(2-hydroxy-1-(5-(methylthio)-4-(4-(trifluoromethyl)phenyl)oxazol-2-yl)ethoxy)-6-(methylthio)benzamide] | > 16 |  |
|  |  | C=CCCC(Oc1ccc(F)c(C(N)=O)c1F)c1nc(-c2ccc(C(F)(F)F)cc2)c(Br)o1 (stereo not shown) [Compound 124, 3-((1-(5-bromo-4-(4-(trifluoromethyl)phenyl)oxazol-2-yl)pent-4-en-1-yl)oxy)-2,6-difluorobenzamide] | 1 to 16 (≈ 1.88 to 30.1 µM) |  |
|  |  | CCCc1oc(C(CCC)Oc2ccc(F)c(C(N)=O)c2F)nc1-c1ccc(Cl)cc1 (stereo not shown) [Compound 30] | 1 to 16 (≈ 2.23 to 35.6 µM) |  |
|  |  | COc1cccc(-c2nc(C(COC(C)=O)Oc3ccc(F)c(C(N)=O)c3F)oc2Br)c1 (stereo not shown) [Compound 108, 2-(5-bromo-4-(3-methoxyphenyl)oxazol-2-yl)-2-(3-carbamoyl-2,4-difluorophenoxy)ethyl acetate] | > 16 |  |
|  |  | NC(=O)c1c(F)ccc(OC(CO)c2nc(-c3ccc(OC(F)(F)F)cc3)c(Br)o2)c1F (stereo not shown) [Compound 116, 3-(1-(5-bromo-4-(4-(trifluoromethoxy)phenyl)oxazol-2-yl)-2-hydroxyethoxy)-2,6-difluorobenzamide] | < 0.25 |  |
|  |  | NC(=O)c1c(F)ccc(OC(CCC(O)CO)c2nc(-c3ccc(C(F)(F)F)cc3)c(Br)o2)c1F (single isomer, unassigned) [Compound 128, 3-((1-(5-bromo-4-(4-(trifluoromethyl)phenyl)oxazol-2-yl)-4,5-dihydroxypentyl)oxy)-2,6-difluorobenzamide (mixture of two diastereomeric pairs of enantiomers)] |  | S. aureus MIC (μg/mL) Activity Range ([2]; S. aureus (ATCC29213)): B (activity>0.25 μg/mL-1.0 μg/mL) |
|  |  | CCCc1oc(COc2ccc(F)c(C(N)=O)c2F)nc1-c1ccc(Cl)cc1 [K] |  | AUC [1]: 400 ng·h/mL; CL [1]: 137 mL/min/kg |
|  |  | NC(=O)c1c(F)ccc(O[C@H](CO)c2nc(-c3ccc(OC(F)F)cc3)co2)c1F [Compound 274B, (R)-3-(1-(4-(4-(difluoromethoxy)phenyl)oxazol-2-yl)-2-hydroxyethoxy)-2,6-difluorobenzamide] | 1 to 16 (≈ 2.35 to 37.5 µM) |  |
|  |  | CCCc1oc(C(COC(C)=O)Oc2ccc(F)c(C(N)=O)c2F)nc1-c1ccc(C(F)(F)F)cc1 (stereo not shown) [Compound 65, 2-(3-carbamoyl-2,4-difluorophenoxy)-2-(5-propyl-4-(4-(trifluoromethyl)phenyl)oxazol-2-yl)ethyl acetate] | 1 to 16 |  |
|  |  | COc1cc(Cl)ccc1-c1coc(C(CO)Oc2ccc(F)c(C(N)=O)c2F)n1 (stereo not shown) [Compound 227, 3-(1-(4-(4-chloro-2-methoxyphenyl)oxazol-2-yl)-2-hydroxyethoxy)-2,6-difluorobenzamide] | > 16 |  |
|  |  | CCOC(=O)C(Oc1ccc(F)c(C(N)=O)c1F)c1nc(C2CCOCC2)co1 (stereo not shown) [Compound 180, ethyl 2-(3-carbamoyl-2,4-difluorophenoxy)-2-(4-(tetrahydro-2H-pyran-4-yl)oxazol-2-yl)acetate] | > 16 |  |
|  |  | NC(=O)c1c(F)ccc(OC(CNC(=O)c2ccccn2)c2nc(-c3ccc(C(F)(F)F)cc3)co2)c1F (stereo not shown) [Compound 294, N-(2-(3-carbamoyl-2,4-difluorophenoxy)-2-(4-(4-(trifluoromethyl)phenyl)oxazol-2-yl)ethyl)picolinamide] | > 16 |  |
|  |  | N#Cc1ccc(-c2nc([C@@H](CO)Oc3ccc(F)c(C(N)=O)c3F)oc2Br)cn1 [Compound 249B, (R)-3-(1-(5-bromo-4-(6-cyanopyridin-3-yl)oxazol-2-yl)-2-hydroxyethoxy)-2,6-difluorobenzamide] | 1 to 16 (≈ 2.15 to 34.4 µM) |  |
|  |  | Cn1nccc1CNC(=O)OCC(Oc1ccc(F)c(C(N)=O)c1F)c1nc(-c2ccc(C(F)(F)F)cc2)c(Br)o1 (stereo not shown) [Compound 194, 2-(5-bromo-4-(4-(trifluoromethyl)phenyl)oxazol-2-yl)-2-(3-carbamoyl-2,4-difluorophenoxy)ethyl ((1-methyl-1H-pyrazol-5-yl)methyl)carbamate] | < 0.25 |  |
|  |  | Cc1cccc(CNC(=O)OCC(Oc2ccc(F)c(C(N)=O)c2F)c2nc(-c3ccc(C(F)(F)F)cc3)c(Br)o2)n1 (stereo not shown) [Compound 199, 2-(5-bromo-4-(4-(trifluoromethyl)phenyl)oxazol-2-yl)-2-(3-carbamoyl-2,4-difluorophenoxy)ethyl ((6-methylpyridin-2-yl)methyl)carbamate] | 0.25 to 1 (≈ 0.381 to 1.53 µM) |  |

| Compound | clearance ([1]; mouse, plasma) [mL/min/kg] | AUC ([1]; mouse, plasma, read-out: AUC) [ng·h/mL] | MIC [2] [µg/mL] | further results |
| --- | --- | --- | --- | --- |
| NC(=O)c1c(F)ccc(O[C@H](COC(=O)CCC(=O)O)c2nc(-c3ccc(C(F)(F)F)cc3)c(Br)o2)c1F [Compound 181, (R)-4-(2-(5-bromo-4-(4-(trifluoromethyl)phenyl)oxazol-2-yl)-2-(3-carbamoyl-2,4-difluorophenoxy)ethoxy)-4-oxobutanoic acid] | 16 | 3000 | 1 to 16 (≈ 1.65 to 26.3 µM) |  |
